Assay in all cases: Prostanoid receptor functional activity measured by FLIPR
Type in all cases: cell-based
Common to all, as to conditions: n = 6 (#1), n = 3 (#2)

The target of one assay is T1, hDP (Homo sapiens, UniProt Q13258).
T1 sequence (Q13258 1-359): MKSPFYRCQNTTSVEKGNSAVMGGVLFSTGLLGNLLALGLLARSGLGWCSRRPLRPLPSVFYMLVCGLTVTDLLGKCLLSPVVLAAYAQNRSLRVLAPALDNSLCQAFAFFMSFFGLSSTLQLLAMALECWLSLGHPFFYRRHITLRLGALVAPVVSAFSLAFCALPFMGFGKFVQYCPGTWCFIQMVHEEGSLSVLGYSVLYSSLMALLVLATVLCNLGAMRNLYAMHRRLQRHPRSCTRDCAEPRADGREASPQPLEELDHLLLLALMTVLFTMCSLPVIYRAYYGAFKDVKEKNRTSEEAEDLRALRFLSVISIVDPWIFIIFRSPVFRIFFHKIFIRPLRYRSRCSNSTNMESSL
As to the method: (§1) The above compounds are evaluated for their selectivity for various prostaglandin (PG) receptors. […] Thus, the method of the present invention may be carried out with EP3 and EP4 receptor agonists and/or prodrugs of EP3 and EP4 receptor agonists.

The target of the next assay is T2, hEP1 (Homo sapiens, UniProt P34995).
T2 sequence (P34995 1-402): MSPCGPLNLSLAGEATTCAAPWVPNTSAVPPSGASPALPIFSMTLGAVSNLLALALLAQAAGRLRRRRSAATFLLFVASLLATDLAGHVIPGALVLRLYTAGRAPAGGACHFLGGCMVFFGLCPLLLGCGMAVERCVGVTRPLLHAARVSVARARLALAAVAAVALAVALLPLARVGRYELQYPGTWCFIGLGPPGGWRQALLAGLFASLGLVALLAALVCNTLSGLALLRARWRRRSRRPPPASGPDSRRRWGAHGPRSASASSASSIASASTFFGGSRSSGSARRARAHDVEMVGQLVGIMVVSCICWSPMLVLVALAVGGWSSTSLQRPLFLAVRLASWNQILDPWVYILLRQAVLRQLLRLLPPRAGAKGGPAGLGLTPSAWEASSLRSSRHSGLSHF
Here is the method: as §1

A further assay addresses hEP2 (Homo sapiens, UniProt P43116). Here is the method:
as §1

Another assay has as its target T3, hEP3 (Homo sapiens, UniProt P43115).
T3 sequence (P43115 1-390): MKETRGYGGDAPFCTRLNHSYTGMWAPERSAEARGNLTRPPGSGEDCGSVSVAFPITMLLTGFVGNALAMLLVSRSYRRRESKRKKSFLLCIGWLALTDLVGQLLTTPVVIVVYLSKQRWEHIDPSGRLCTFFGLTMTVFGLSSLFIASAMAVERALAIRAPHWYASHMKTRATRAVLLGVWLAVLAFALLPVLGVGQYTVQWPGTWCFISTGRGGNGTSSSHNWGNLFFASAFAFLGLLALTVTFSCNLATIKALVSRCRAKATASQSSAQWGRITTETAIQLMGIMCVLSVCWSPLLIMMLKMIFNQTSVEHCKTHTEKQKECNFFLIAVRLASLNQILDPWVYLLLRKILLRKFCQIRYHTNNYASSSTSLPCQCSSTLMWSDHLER
As to the method: as §1

The target of the next assay is hEP4 (Homo sapiens, UniProt P35408). As to the method: as §1
Sequence of hEP4 (P35408 whole entry): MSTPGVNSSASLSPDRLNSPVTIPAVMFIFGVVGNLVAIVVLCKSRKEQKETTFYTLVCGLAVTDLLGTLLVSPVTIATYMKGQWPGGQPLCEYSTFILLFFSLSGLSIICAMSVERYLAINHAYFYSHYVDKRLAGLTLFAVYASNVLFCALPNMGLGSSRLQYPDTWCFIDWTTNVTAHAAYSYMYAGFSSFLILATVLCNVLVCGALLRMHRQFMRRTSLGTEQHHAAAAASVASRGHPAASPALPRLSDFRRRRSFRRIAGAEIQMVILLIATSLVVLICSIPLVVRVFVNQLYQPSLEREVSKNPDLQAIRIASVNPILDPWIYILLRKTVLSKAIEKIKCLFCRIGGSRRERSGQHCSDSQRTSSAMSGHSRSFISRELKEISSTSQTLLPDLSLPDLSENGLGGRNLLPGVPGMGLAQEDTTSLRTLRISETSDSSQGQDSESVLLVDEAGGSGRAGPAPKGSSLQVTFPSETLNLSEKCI
A further assay has as its target hFP (Homo sapiens, UniProt P43088). As to the method:
as §1

The next assay concerns the target hIP (Homo sapiens, UniProt P43119). As to the method: as §1
For a further assay, the target named is T4, hTP (Homo sapiens, UniProt P21731).
T4 sequence (P21731 1-343): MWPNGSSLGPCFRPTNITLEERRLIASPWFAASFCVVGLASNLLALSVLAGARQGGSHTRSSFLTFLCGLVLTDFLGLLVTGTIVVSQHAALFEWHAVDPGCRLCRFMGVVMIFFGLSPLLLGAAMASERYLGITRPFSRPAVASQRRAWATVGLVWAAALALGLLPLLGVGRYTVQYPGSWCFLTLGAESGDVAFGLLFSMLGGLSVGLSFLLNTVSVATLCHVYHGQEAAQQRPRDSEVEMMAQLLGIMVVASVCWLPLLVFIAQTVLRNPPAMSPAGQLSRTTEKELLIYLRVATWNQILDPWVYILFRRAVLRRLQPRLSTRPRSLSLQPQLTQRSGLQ
Here is the method:
as §1

A value given as a limit tells only on which side of the number the result lay.

Sequence of hEP2 (P43116 whole entry): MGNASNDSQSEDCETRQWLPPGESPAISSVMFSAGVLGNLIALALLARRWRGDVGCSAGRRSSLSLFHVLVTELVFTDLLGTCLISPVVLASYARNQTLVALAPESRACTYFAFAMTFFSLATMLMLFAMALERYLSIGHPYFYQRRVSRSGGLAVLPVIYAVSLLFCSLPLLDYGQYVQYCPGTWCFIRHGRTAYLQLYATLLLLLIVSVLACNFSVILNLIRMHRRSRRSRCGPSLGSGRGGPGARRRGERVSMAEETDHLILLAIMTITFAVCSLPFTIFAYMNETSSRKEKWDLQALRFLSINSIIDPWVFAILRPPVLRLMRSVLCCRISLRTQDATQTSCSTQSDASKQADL
Sequence of hFP (P43088 whole entry): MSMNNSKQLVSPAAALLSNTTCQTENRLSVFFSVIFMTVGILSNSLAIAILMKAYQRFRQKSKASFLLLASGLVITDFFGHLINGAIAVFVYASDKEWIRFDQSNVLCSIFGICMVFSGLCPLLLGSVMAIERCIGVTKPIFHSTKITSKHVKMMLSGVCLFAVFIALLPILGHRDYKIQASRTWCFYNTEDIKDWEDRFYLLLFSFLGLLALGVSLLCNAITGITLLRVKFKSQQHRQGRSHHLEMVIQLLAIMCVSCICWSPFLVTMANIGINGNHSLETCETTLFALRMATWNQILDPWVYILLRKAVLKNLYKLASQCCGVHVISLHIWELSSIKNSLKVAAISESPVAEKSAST
Sequence of hIP (P43119 whole entry): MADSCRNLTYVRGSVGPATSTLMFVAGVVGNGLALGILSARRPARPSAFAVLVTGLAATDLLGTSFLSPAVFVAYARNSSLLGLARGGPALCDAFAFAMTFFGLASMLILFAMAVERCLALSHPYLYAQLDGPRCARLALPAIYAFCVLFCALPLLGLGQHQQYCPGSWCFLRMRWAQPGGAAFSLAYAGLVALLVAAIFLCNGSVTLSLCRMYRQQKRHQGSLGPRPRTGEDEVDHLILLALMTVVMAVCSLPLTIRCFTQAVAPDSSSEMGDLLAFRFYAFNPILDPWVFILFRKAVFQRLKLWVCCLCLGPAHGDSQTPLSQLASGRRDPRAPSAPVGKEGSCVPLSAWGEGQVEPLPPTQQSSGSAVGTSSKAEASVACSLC

As a reminder, the EC50 is the concentration that produces a half-maximal response. A high value points to weaker potency. For the molecule `CCCCC[C@H](O)/C=C/[C@H]1[C@H](O)CC(=O)[C@@H]1SCCCSCC(=O)OC(C)C` [#2, {3-[(1R,2S,3R)-3-Hydroxy-2-((S)-(E)-3-hydroxyoct-1-enyl)-5-oxocyclopentyl-sulfanyl]propylsulfanyl}acetic acid isopropyl ester], the EC50 was > 10000 nM on hDP; 2260 nM at hEP1; 1110 nM on hEP2; 44 nM at hEP3; 2.55 nM at hEP4; > 10000 nM on hFP. Besides, the results for the EC50 on hIP and on hTP were > 10000 nM and 3290 nM, respectively.

With `CCCCC[C@H](O)/C=C/[C@H]1[C@H](O)CC(=O)[C@@H]1SCCCSCC(=O)O` [#1, {3-[(1R,2S,3R)-3-Hydroxy-2-((S)-(E)-3-hydroxyoct-1-enyl)-5-oxocyclopentyl-sulfanyl]propylsulfanyl}acetic acid], the EC50 at hDP is > 10000 nM; at hEP1 it was 304 nM; on hEP2 it was 380 nM; at hEP3, 36 nM; on hEP4, 0.26 nM; at hFP, > 10000 nM. In addition, the EC50 is > 10000 nM at hIP and 561 nM on hTP.
